According to US20240360114A1 (SIRONAX LTD., priority 2021, published 2024):

System: HT-1080 cells
Experiment: HT-1080 cell viability assay (ferroptosis induced by RSL3, Cell Titer-Glo)
Format: cell-based
Conditions: Homo sapiens, HT-1080, 20 h, ferroptosis inducer RSL3, 20 hours, ferroptosis inhibitory activity, Table 2
Outline: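 EC50 fitted by sigmoidal dose-response regression on luminescent viability data normalized to untreated cells. Compounds ran as a 10-point, 3-fold series from 1.1 μM alongside RSL3 for 20 hours, after overnight seeding.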

Compound	EC50 [nM]
O=C1CC(C(=O)NC2CC(Nc3ccc(C4CCCCC4)cc3)C2)CN1 (stereo not shown) [Compound 112, N-(3-((4-cyclohexylphenyl)amino)cyclobutyl)-5-oxopyrrolidine-3-carboxamide]	100 to 1000
O=C1NC[C@H](C(=O)NC2CC(Nc3ccc(C4CCCCC4)cc3)C2)N1 (stereo partly drawn) [Compound 113, (R)—N-(3-((4-cyclohexylphenyl)amino)cyclobutyl)-2-oxoimidazolidine-4-carboxamide]	100 to 1000
CC1(C)CCC(c2ccc(NC3CCC(CCN)CC3)cc2)CC1 (stereo not shown) [Compound 118, N-(4-(2-aminoethyl)cyclohexyl)-4-(4,4-dimethylcyclohexyl)aniline]	0.1 to 100
CC1(N)CCC(Nc2ccc3c(c2)CCCC3)CC1 (stereo not shown) [Compound 119, 1-methyl-N4-(5,6,7,8-tetrahydronaphthalen-2-yl)cyclohexane-1,4-diamine]	0.1 to 100
NC1CCC(Nc2ccc(C3CCCCC3)cc2)CC1 (stereo not shown) [Compound 122, N1-(4-cyclohexylphenyl)cyclohexane-1,4-diamine]	0.1 to 100
CC(C)(C)c1ccc(NC2CC(N)C2)cc1 (stereo not shown) [Compound 123, N1-(4-(tert-butyl)phenyl)cyclobutane-1,3-diamine]	100 to 1000
CC(C)(C)c1ccc(NC2CCC(N)C2)cc1 (stereo not shown) [Compound 124, N1-(4-(tert-butyl)phenyl)cyclopentane-1,3-diamine]	100 to 1000
CCc1ccc(NC2CCC(N)CC2)cc1 (stereo not shown) [Compound 125, N1-(4-ethylphenyl)cyclohexane-1,4-diamine]	100 to 1000
CC(C)(C)c1ccccc1NC1CCC(N)CC1 (stereo not shown) [Compound 126, N1-(2-(tert-butyl)phenyl)cyclohexane-1,4-diamine]	1000 to 10000
CC(C)c1ccc(NC2CCC(N)CC2)cc1 (stereo not shown) [Compound 127, N1-(4-isopropylphenyl)cyclohexane-1,4-diamine]	100 to 1000

Other lines, results leading:

EC50 [nM]	Compound
100 to 1000	Cc1ccc(NC2CCC(N)CC2)cc1 (stereo not shown) [Compound 128, N1-(p-tolyl)cyclohexane-1,4-diamine]
100 to 1000	CC1(C)CCC(c2ccc(NC3CC(NC(=O)[C@H]4CNC(=O)N4)C3)cc2)CC1 (stereo partly drawn) [Compound 129, (R)—N-(3-((4-(4,4-dimethylcyclohexyl)phenyl)amino)cyclobutyl)-2-oxoimidazolidine-4-carboxamide]
100 to 1000	CC(C)(C)c1ccc(NCc2cnc[nH]2)cc1 [Compound 130, N-((1H-imidazol-5-yl)methyl)-4-(tert-butyl)aniline]
0.1 to 100	CC1(C)CCC(c2ccc(NC3CCNCC3)cc2)CC1 [Compound 131, N-(4-(4,4-dimethylcyclohexyl)phenyl)piperidin-4-amine]
0.1 to 100	NC1CC(Nc2ccc(C3CCCCC3)cc2)C1 (stereo not shown) [Compound 132, N1-(4-cyclohexylphenyl)cyclobutane-1,3-diamine]
1000 to 10000	NC1CCC(Nc2ccc(F)cc2)CC1 (stereo not shown) [Compound 134, N1-(4-fluorophenyl)cyclohexane-1,4-diamine]
0.1 to 100	CCCCCc1ccc(NC2CCC(N)CC2)cc1 (stereo not shown) [Compound 136, N1-(4-pentylphenyl)cyclohexane-1,4-diamine]
0.1 to 100	CCCCc1ccc(NC2CCC(N)CC2)cc1 (stereo not shown) [Compound 137, N1-(4-butylphenyl)cyclohexane-1,4-diamine]
100 to 1000	CC1CC(c2ccc(NC3CCC(N)CC3)cc2)CC(C)O1 (stereo not shown) [Compound 138, N1-(4-(2,6-dimethyltetrahydro-2H-pyran-4-yl)phenyl)cyclohexane-1,4-diamine]
0.1 to 100	CC(N)C1CCC(Nc2ccc(C3CCC(C)(C)CC3)cc2)CC1 (stereo not shown) [Compound 140, N-(4-(1-aminoethyl)cyclohexyl)-4-(4,4-dimethylcyclohexyl)aniline]

Same assay, conditions: Homo sapiens, ferroptosis inducer RSL3, 20 hours, ferroptosis inhibitory activity, Table 2

Compound	EC50 [nM]
CC1(C)CCC(c2ccc(NC3CCC(CNC(N)=O)CC3)cc2)CC1 (stereo not shown) [Compound 116, 1-((4-((4-(4,4-dimethylcyclohexyl)phenyl)amino)cyclohexyl)methyl)urea]	0.1 to 100

Same assay, conditions: ferroptosis inducer RSL3, 20 hours, ferroptosis inhibitory activity, Table 2

EC50 [nM]	Compound
0.1 to 100	NC1CCC(Nc2ccc(C3CCCCC3)cc2)CC1 (stereo not shown) [Compound 133, N1-(4-cyclohexylphenyl)cyclohexane-1,4-diamine]
